Values of other authors as cited in patent US12640239B2, “Functional biomarkers for statin therapy in age-related macular degeneration (AMD)” (APELIOTUS TECHNOLOGIES, INC., priority 2017, dated 2026).

Tested on: older adults with normal retinal health or AMD
Conditions: 30-day course of 50,000 international units of oral retinol, cited from earlier work

**Q.** With `CC1=C(/C=C/C(C)=C/C=C/C(C)=C/CO)C(C)(C)CCC1` [retinol] as the molecule, how does the “Dark adaptation vs placebo group” value (30-day follow-up, 52 per group) read?
**A.** significantly faster dark adaptation than the placebo group

**Q.** What about the “Visual acuity vs placebo group” value (30-day follow-up) of the same molecule?
**A.** no difference in visual acuity between the groups

**Q.** What about the “Improvement in dark adaptation after washout” value (after an additional 30-day washout period) of the same molecule?
**A.** reversed to the baseline level
